# Measurements published in ChEMBL document CHEMBL4330058, “Discovery of novel anti-angiogenesis agents. Part 10: Multi-target inhibitors of VEGFR-2, Tie-2 and EphB4 incorporated with 1,2,3-triazol” (Eur J Med Chem, 2019).
# Target: Vascular endothelial growth factor receptor 2 (Homo sapiens, UniProt P35968)
# Experiment: Inhibition of VEGFR2 (unknown origin) after 1 hr by ADP-Glo reagent based luminescent assay
# Details: not given
# Sequence of Vascular endothelial growth factor receptor 2 (P35968 whole entry): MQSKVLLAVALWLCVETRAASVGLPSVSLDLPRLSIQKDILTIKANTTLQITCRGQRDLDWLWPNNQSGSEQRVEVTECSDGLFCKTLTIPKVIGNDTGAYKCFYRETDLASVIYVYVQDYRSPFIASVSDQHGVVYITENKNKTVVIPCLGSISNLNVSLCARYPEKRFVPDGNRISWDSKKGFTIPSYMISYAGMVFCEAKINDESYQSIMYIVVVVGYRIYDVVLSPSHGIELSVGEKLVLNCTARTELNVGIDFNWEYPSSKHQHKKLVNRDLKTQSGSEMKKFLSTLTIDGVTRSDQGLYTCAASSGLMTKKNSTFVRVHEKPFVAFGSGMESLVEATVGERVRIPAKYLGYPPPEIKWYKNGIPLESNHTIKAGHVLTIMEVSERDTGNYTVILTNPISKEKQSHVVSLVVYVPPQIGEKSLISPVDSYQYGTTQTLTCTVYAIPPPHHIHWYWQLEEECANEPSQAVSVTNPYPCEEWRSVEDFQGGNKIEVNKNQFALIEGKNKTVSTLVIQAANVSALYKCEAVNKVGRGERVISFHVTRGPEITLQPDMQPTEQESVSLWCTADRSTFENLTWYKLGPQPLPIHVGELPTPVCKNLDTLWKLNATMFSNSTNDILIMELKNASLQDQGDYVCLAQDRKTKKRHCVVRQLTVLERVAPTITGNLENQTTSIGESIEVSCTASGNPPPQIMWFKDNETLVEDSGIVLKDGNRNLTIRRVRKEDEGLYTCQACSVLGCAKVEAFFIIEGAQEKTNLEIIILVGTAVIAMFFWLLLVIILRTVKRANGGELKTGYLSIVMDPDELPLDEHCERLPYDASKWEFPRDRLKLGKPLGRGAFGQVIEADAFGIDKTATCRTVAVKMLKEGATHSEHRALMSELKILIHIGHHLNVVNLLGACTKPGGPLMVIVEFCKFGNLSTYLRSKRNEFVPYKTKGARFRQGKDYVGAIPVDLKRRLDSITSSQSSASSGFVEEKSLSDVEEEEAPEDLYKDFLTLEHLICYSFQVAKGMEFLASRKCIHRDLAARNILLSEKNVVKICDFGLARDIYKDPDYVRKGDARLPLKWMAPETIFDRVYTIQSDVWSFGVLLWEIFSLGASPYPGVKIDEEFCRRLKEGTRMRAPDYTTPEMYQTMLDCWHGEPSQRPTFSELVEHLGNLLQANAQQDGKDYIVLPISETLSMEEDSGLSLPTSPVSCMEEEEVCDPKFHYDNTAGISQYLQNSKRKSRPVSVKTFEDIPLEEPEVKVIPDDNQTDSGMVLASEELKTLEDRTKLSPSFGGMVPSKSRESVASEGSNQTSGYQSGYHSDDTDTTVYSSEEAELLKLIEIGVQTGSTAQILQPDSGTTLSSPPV
row,IC50 [nM],Structure (SMILES)
1,> 1000,FC(F)(F)c1cccc(-c2cn(Cc3ccc(-c4cccnc4)cc3)nn2)c1
2,> 1000,COc1ccc(-c2ccc(Cn3cc(-c4ccccc4F)nn3)cc2)cn1

# Target: Angiopoietin-1 receptor (Homo sapiens, UniProt Q02763)
# Experiment: Inhibition of TIE2 (unknown origin) after 4 hrs by ADP-Glo reagent based luminescent assay
# Details: not given
# Sequence of Angiopoietin-1 receptor (Q02763 whole entry): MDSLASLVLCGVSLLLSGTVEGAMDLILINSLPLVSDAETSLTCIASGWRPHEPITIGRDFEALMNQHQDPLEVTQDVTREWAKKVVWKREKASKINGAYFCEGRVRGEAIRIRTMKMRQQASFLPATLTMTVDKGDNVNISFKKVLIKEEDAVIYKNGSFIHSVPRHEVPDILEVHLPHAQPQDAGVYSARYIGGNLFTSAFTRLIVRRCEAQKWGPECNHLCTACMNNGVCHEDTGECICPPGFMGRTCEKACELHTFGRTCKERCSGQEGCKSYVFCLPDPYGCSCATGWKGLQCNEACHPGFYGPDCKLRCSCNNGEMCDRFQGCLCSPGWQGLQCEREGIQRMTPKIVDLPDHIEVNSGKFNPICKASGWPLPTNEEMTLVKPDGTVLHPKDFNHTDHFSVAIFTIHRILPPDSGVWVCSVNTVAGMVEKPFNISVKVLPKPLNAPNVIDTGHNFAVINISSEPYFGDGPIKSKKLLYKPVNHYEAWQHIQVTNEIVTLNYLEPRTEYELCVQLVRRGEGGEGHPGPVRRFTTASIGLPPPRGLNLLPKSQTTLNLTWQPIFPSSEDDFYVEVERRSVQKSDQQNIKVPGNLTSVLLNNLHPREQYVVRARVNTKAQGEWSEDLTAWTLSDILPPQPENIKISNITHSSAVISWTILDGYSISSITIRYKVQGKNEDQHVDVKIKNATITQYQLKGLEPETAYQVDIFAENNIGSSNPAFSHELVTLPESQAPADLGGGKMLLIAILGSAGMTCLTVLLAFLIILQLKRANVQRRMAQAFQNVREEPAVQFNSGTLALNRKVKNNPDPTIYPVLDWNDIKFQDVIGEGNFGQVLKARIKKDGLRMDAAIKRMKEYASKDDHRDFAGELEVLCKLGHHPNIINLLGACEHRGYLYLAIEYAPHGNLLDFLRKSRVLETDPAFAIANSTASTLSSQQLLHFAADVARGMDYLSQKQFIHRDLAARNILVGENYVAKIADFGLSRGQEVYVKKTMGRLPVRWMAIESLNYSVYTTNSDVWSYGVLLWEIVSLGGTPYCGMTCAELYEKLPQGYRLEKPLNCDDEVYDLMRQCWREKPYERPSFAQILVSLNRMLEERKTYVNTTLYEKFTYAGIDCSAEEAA
row,IC50 [nM],Structure (SMILES)
1,> 1000,COc1ccc(-c2ccc(Cn3cc(-c4cccc(C)c4)nn3)cc2)cn1
2,> 1000,COc1ccc(-c2ccc(Cn3cc(-c4ccccc4)nn3)cc2)cn1
3,> 1000,FC(F)(F)c1ccc(-c2cn(Cc3ccc(-c4cccnc4)cc3)nn2)cc1
4,> 1000,Cc1ccc(-c2cn(Cc3ccc(-c4cccnc4)cc3)nn2)cc1

# Target: T1, Ephrin type-B receptor 4 (Homo sapiens, UniProt P54760)
# T1 sequence (P54760 whole entry): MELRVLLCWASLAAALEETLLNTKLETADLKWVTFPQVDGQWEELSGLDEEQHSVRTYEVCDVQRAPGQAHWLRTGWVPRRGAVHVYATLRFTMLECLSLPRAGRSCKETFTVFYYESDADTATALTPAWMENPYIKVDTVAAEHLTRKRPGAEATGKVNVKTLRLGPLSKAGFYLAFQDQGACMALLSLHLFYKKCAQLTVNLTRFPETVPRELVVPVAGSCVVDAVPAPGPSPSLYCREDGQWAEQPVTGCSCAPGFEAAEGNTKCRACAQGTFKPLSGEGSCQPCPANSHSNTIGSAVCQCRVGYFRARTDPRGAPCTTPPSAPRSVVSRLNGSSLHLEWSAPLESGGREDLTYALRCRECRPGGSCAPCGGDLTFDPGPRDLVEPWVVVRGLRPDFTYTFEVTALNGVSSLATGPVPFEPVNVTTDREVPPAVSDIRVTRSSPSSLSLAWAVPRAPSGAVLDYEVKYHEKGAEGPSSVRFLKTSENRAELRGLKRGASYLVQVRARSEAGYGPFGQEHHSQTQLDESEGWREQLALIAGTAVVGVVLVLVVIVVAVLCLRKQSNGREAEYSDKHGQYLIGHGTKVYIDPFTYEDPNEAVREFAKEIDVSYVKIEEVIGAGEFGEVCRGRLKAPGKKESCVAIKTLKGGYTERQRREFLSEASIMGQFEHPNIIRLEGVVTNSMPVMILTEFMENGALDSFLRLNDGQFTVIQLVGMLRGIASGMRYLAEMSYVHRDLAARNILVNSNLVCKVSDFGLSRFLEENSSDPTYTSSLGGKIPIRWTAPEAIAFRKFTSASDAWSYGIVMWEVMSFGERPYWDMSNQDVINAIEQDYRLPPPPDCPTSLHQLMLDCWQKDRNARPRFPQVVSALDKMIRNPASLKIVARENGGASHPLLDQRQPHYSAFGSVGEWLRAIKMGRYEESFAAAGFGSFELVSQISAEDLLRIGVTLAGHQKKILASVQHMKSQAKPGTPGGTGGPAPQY
# Experiment: Inhibition of EPHB4 (unknown origin) after 4 hrs by ADP-Glo reagent based luminescent assay
# Details: not given
row,IC50 [nM],Structure (SMILES)
1,> 1000,COc1ccc(-c2ccc(Cn3cc(-c4ccc(C(F)(F)F)cc4)nn3)cc2)cn1
2,> 1000,COc1ccc(-c2ccc(Cn3cc(-c4ccccc4)nn3)cc2)cn1
3,> 1000,FC(F)(F)c1cccc(-c2cn(Cc3ccc(-c4cccnc4)cc3)nn2)c1
4,> 1000,FC(F)(F)c1ccc(-c2cn(Cc3ccc(-c4cccnc4)cc3)nn2)cc1
5,> 1000,Cc1cccc(-c2cn(Cc3ccc(-c4cccnc4)cc3)nn2)c1

# Test system: SMMC-7721
# Experiment: Antiproliferative activity against human SMMC7721 cells
# Details: not given
row,IC50 [nM],Structure (SMILES)
1,300,CNC(=O)c1cc(Oc2ccc(NC(=O)Nc3ccc(Cl)c(C(F)(F)F)c3)cc2)ccn1 [SORAFENIB]
2,240,COc1ccc(-c2ccc(Cn3cc(-c4cccc(N)c4)nn3)cc2)cn1

# Test system: MCF7
# Experiment: Antiproliferative activity against human MCF7 cells
# Details: not given
row,IC50 [nM],Structure (SMILES)
1,90,CNC(=O)c1cc(Oc2ccc(NC(=O)Nc3ccc(Cl)c(C(F)(F)F)c3)cc2)ccn1 [SORAFENIB]
2,350,COc1ccc(-c2ccc(Cn3cc(-c4cccc(N)c4)nn3)cc2)cn1

# Test system: A-431
# Experiment: Antiproliferative activity against human A431 cells
# Details: not given
row,IC50 [nM],Structure (SMILES)
1,120,CNC(=O)c1cc(Oc2ccc(NC(=O)Nc3ccc(Cl)c(C(F)(F)F)c3)cc2)ccn1 [SORAFENIB]
2,70,COc1ccc(-c2ccc(Cn3cc(-c4cccc(N)c4)nn3)cc2)cn1

# Test system: A549
# Experiment: Antiproliferative activity against human A549 cells
# Details: not given
row,IC50 [nM],Structure (SMILES)
1,80,CNC(=O)c1cc(Oc2ccc(NC(=O)Nc3ccc(Cl)c(C(F)(F)F)c3)cc2)ccn1 [SORAFENIB]
2,180,COc1ccc(-c2ccc(Cn3cc(-c4cccc(N)c4)nn3)cc2)cn1

# Test system: LoVo
# Experiment: Antiproliferative activity against human LoVo cells
# Details: not given
row,IC50 [nM],Structure (SMILES)
1,250,CNC(=O)c1cc(Oc2ccc(NC(=O)Nc3ccc(Cl)c(C(F)(F)F)c3)cc2)ccn1 [SORAFENIB]
2,100,COc1ccc(-c2ccc(Cn3cc(-c4cccc(N)c4)nn3)cc2)cn1

# Test system: PANC-1
# Experiment: Antiproliferative activity against human PANC1 cells
# Details: not given
row,IC50 [nM],Structure (SMILES)
1,150,CNC(=O)c1cc(Oc2ccc(NC(=O)Nc3ccc(Cl)c(C(F)(F)F)c3)cc2)ccn1 [SORAFENIB]
2,490,COc1ccc(-c2ccc(Cn3cc(-c4cccc(N)c4)nn3)cc2)cn1

# Test system: HeLa
# Experiment: Antiproliferative activity against human HeLa cells
# Details: not given
row,IC50 [nM],Structure (SMILES)
1,270,CNC(=O)c1cc(Oc2ccc(NC(=O)Nc3ccc(Cl)c(C(F)(F)F)c3)cc2)ccn1 [SORAFENIB]
2,290,COc1ccc(-c2ccc(Cn3cc(-c4cccc(N)c4)nn3)cc2)cn1

# Test system: EA.hy 926
# Experiment: Anti-angiogenic activity against human EAhy926 after 24 hrs by CCK-8 assay
# Assay type: functional, cell-based
# Details: EA.hy 926, 24 h
row,Structure (SMILES),IC50 [nM]
1,Nc1cccc(-c2cn(Cc3ccc(-c4cccnc4)cc3)nn2)c1,24300
2,Clc1cccc(-c2cn(Cc3ccc(-c4cccnc4)cc3)nn2)c1,431000
3,COc1ccc(-c2ccc(Cn3cc(-c4cccc(C)c4)nn3)cc2)cn1,43900
4,COc1ccc(-c2ccc(Cn3cc(-c4ccc(C(F)(F)F)cc4)nn3)cc2)cn1,122000
5,COc1ccc(-c2ccc(Cn3cc(-c4ccccc4)nn3)cc2)cn1,110000
6,FC(F)(F)c1cccc(-c2cn(Cc3ccc(-c4cccnc4)cc3)nn2)c1,137000
7,c1ccc(-c2cn(Cc3ccc(-c4cccnc4)cc3)nn2)cc1,12100
8,CNC(=O)c1cc(Oc2ccc(NC(=O)Nc3ccc(Cl)c(C(F)(F)F)c3)cc2)ccn1 [SORAFENIB],11700
9,FC(F)(F)c1ccc(-c2cn(Cc3ccc(-c4cccnc4)cc3)nn2)cc1,170000
10,COc1ccc(-c2ccc(Cn3cc(-c4cccc(Cl)c4)nn3)cc2)cn1,440000
11,Cc1cccc(-c2cn(Cc3ccc(-c4cccnc4)cc3)nn2)c1,134000
12,Fc1ccccc1-c1cn(Cc2ccc(-c3cccnc3)cc2)nn1,9280
13,COc1ccc(-c2ccc(Cn3cc(-c4ccc(C)cc4)nn3)cc2)cn1,678000
14,COc1ccc(-c2ccc(Cn3cc(-c4cccc(N)c4)nn3)cc2)cn1,14500
15,Cc1ccc(-c2cn(Cc3ccc(-c4cccnc4)cc3)nn2)cc1,6490
16,COc1ccc(-c2ccc(Cn3cc(-c4ccccc4F)nn3)cc2)cn1,708000
